Key:
ER = settings: fold over TAM; cited from earlier work
colon cancer cell lines = assay: NCI five-dose assay, colon cancer subpanel; type: cell-based; settings: Homo sapiens
Procedure: (§1) All compounds were subjected to the NCI in vitro disease-oriented human cells screening panel assay. The human tumor cell lines of the cancer-screening panel are grown in RPMI 1640 medium containing 5% fetal bovine serum and 2 mM L-glutamine. For a typical screening experiment, cells are inoculated into 96-well microtiter plates in 100 μL at plating densities ranging from 5000 to 40,000 cells/well depending on the doubling time of individual cell lines. After cell inoculation, the microtiter plates are incubated at 37 °C, 5% CO2, 95% air, and 100% relative humidity for 24 h prior to the addition of experimental drugs. After 24 h, two plates of each cell line are fixed in situ with TCA to represent a measurement of the cell population for each cell line at the time of drug addition. Experimental drugs are solubilized in dimethyl sulfoxide at 400-fold the desired final maximum test concentration and stored frozen prior to use. At the time of drug addition, an aliquot of frozen concentrate is thawed and diluted to twice the desired final maximum test concentration with complete medium containing 50 μg/mL gentamicin. […] Bound stain is subsequently solubilized with a 10 mM trizma base, and the absorbance is read on an automated plate reader at a wavelength of 515 nm. […] Three response parameters (GI50, TGI, and LC50) were calculated for each cell line.

MCF-7 cells = assay: NCI growth inhibition on MCF-7 (single dose and five-dose, SRB); type: cell-based, human; settings: Homo sapiens, MCF7
Procedure: Compounds were submitted to the Developmental Therapeutics Program (DTP) of the National Cancer Institute (NCI). The program uses a panel of 60 human tumor cell lines representing nine tissue types, including leukemia, non-small cell lung cancer (NSCLC), melanoma, colon cancer, ovarian cancer, CNS cancer, renal cancer, prostate cancer, and breast cancer, to screen for potential new anti-cancer agents. […] Primary screening of synthesized compounds was performed by testing a single high dose of 10 µM in the full NCI-60 panel. The percent growth of treated cells relative to the no-drug control and relative to the time zero number of cells was measured, and a mean graph was provided. The percentage inhibition was then calculated by subtracting the values obtained from 100.
All compounds were subjected to the NCI in vitro disease-oriented human cells screening panel assay. The human tumor cell lines of the cancer-screening panel are grown in RPMI 1640 medium containing 5% fetal bovine serum and 2 mM L-glutamine. For a typical screening experiment, cells are inoculated into 96-well microtiter plates in 100 μL at plating densities ranging from 5000 to 40,000 cells/well depending on the doubling time of individual cell lines. After cell inoculation, the microtiter plates are incubated at 37 °C, 5% CO2, 95% air, and 100% relative humidity for 24 h prior to the addition of experimental drugs. After 24 h, two plates of each cell line are fixed in situ with TCA to represent a measurement of the cell population for each cell line at the time of drug addition. Experimental drugs are solubilized in dimethyl sulfoxide at 400-fold the desired final maximum test concentration and stored frozen prior to use. At the time of drug addition, an aliquot of frozen concentrate is thawed and diluted to twice the desired final maximum test concentration with complete medium containing 50 μg/mL gentamicin. Additional four, 10-fold, or ½ log serial dilutions are made to provide a total of five drug concentrations plus control. Aliquots of 100 μL of these different drug dilutions are added to the appropriate microtiter wells already containing 100 μL of medium, resulting in the required final drug concentrations. Following drug addition, the plates are incubated for an additional 48 h at 37 °C, 5% CO2, 95% air, and 100% relative humidity. For adherent cells, the assay is terminated by the addition of cold TCA. Cells are fixed in situ by the gentle addition of 50 μL of cold 50% (w/v) TCA (final concentration, 10% TCA) and incubated for 60 min at 4 °C. The supernatant is discarded, and the plates are washed five times with tap water and air-dried. Sulforhodamine B (SRB) solution (100 μL) at 0.4% (w/v) in 1% acetic acid is added to each well, and plates are incubated for 10 min at room temperature. After staining, unbound dye is removed by washing five times with 1% acetic acid, and the plates are air-dried. Bound stain is subsequently solubilized with a 10 mM trizma base, and the absorbance is read on an automated plate reader at a wavelength of 515 nm. For suspension cells, the methodology is the same except that the assay is terminated by fixing settled cells at the bottom of the wells by gently adding 50 μL of 80% TCA (final concentration, 16% TCA). Compounds are screened at a dose of 10 µM, hits showing mean growth inhibition over 60 cell lines >50% are escalated for 5-dose screening assay. To construct a dose-response curve, about 60 cell lines of nine tumor subpanels were incubated with five concentrations (0.01–100 μM) for each compound. Three response parameters (GI50, TGI, and LC50) were calculated for each cell line.

NSCLC cell lines = assay: NCI five-dose assay, NSCLC subpanel; type: cell-based; settings: Homo sapiens
Procedure: as §1

renal cell lines = assay: NCI five-dose assay, renal subpanel; type: cell-based; settings: Homo sapiens
Procedure: as §1

prostate cell lines = assay: NCI five-dose assay, prostate subpanel; type: cell-based; settings: Homo sapiens
Procedure: as §1

SMILES | affinity to the ER compared to the parent drug TAM (times) (ER) | GI50 (colon cancer cell lines) | inhibition at 10 µM (MCF-7 cells; 10 µM) | GI50 (MCF-7 cells; MCF-7, five-dose assay, 48 h) | GI50 (NSCLC cell lines) | GI50 (renal cell lines) | GI50 (prostate cell lines)
CC/C(=C(\c1ccc(O)cc1)c1ccc(OCCN(C)C)cc1)c1ccccc1 [Compound 4-OH-TAM, 4-hydroxy-TAM] | 100 | – | – | – | – | – | –
CC/C(=C(\c1ccc(O)cc1)c1ccc(OCCNC)cc1)c1ccccc1 [endoxifen] | 100 | – | – | – | – | – | –
CC/C(=C(\c1ccccc1)c1ccc(OCCN(C)C)cc1)c1ccccc1 [TAM, Tamoxifen, reference compound] | – | 6.31 µM | > 100% | 1.58 µM | 6.31 µM | 5 µM | 5.35 µM

From PMC8621172, “Manipulating Estrogenic/Anti-Estrogenic Activity of Triphenylethylenes towards Development of Novel Anti-Neoplastic SERMs” (International Journal of Molecular Sciences, 2021)
